The source of these data is patent publication US11946092B2, “Method for producing 2-keto-3-deoxygluconate from 2-(acetylamino)-2-deoxy-d-gluconic acid by two enzymes” (SHANDONG UNIVERSITY, priority 2022, dated 2024).

The test system of one test is deacetylase OngB. As to the kind of experiment: Substrate specificity analysis of OngB (acetate production). The test is classed as biochemical, Pseudoalteromonas prydzensis ACAM 620. Conditions: 5 μM OngB, 25 mM substrate, 10 mM Bis-Tris-HCl (pH 7.5), 25° C., 30 min; FIG. 4A. Here is the method:
Substrate specificity assays were performed with GlcNAc1A, GlcNAc, GlcNAc-6-P, N-acetyl-D-glutamate and N-acetyl-D-serine. Standard reaction system contained 5 μM OngB, 25 mM substrate and 10 mM Bis-Tris-HCl (pH 7.5). Reactions were conducted at 25° C. for 30 min. The production of acetate in the reaction mixture was determined with an Acetic Acid (ACS Analyser Format) Assay Kit. One unit of enzyme (U) is defined as the amount of enzyme required to release 1 μmol of acetate per minute.

For another test, the system named is deaminase OngC. In words: Substrate specificity analysis of OngC (ammonia production). In kind it is biochemical, Pseudoalteromonas prydzensis ACAM 620. Conditions: 0.5 μM OngC, 10 mM substrate, 10 mM Bis-Tris-HCl (pH 7.5), 25° C., 30 min; FIG. 4B. The procedure: Substrate specificity assays were performed with GlcN1A, D-glucosamine, D-galactosamine and D-mannosamine. GlcN1A was prepared by incubating 10 μM OngB with 10 mM GlcNAc1A in 10 mM Bis-Tris-HCl (pH 7.5) at 25° C. for 4 h. Standard reaction system contained 0.5 μM OngC, 10 mM substrate and 10 mM Bis-Tris-HCl (pH 7.5). Reactions were conducted at 25° C. for 30 min. The production of ammonia in the reaction mixture was determined with an AMMONIA (Rapid) ASSAY PROCEDURE. One unit of enzyme (U) is defined as the amount of enzyme required to release 1 μmol of ammonia per minute.

On to `CC(=O)N[C@H]1C(O)O[C@H](CO)[C@@H](O)[C@@H]1O` (stereo partly drawn) [GlcNAc, N-acetyl-D-glucosamine], for which the “OngB activity towards substrate (production of acetate)” value (shortened to “OngB activity towards substrate”) in the test with deacetylase OngB is “little or no activity”.

Regarding `CC(=O)N[C@@H](C(=O)O)[C@@H](O)[C@H](O)[C@H](O)CO` [GlcNAc1A, 2-(acetylamino)-2-deoxy-D-gluconic acid], the “OngB activity towards substrate” value with deacetylase OngB is recorded as “high substrate specificity”.

In the case of `CC(=O)N[C@H](CO)C(=O)O` [N-acetyl-D-serine], the “OngB activity towards substrate” value with deacetylase OngB is “little or no activity”. With `CC(=O)N[C@@H]1[C@@H](O)[C@H](O)[C@@H](COP(=O)(O)O)O[C@@H]1O` [GlcNAc-6-P], the “OngB activity towards substrate” value in the test with deacetylase OngB is “little or no activity”.

As for `CC(=O)N[C@H](CCC(=O)O)C(=O)O` [N-acetyl-D-glutamate], the “OngB activity towards substrate” value with deacetylase OngB is “little or no activity”. Turning to `N[C@@H](C(=O)O)[C@@H](O)[C@H](O)[C@H](O)CO` [GlcN1A, 2-(amino)-2-deoxy-D-gluconic acid], the “OngC activity towards substrate (production of ammonia)” value (shortened to “OngC activity towards substrate”) in the test with deaminase OngC is given as “high substrate specificity”.

As to `N[C@H]1C(O)O[C@H](CO)[C@H](O)[C@@H]1O` (stereo partly drawn) [D-galactosamine], the “OngC activity towards substrate” value in the test on deaminase OngC was “little or no activity”.

Regarding `N[C@H]1C(O)O[C@H](CO)[C@@H](O)[C@@H]1O` (stereo partly drawn) [D-glucosamine], in the test with deaminase OngC, the “OngC activity towards substrate” value is listed as “little or no activity”. For the compound `N[C@@H]1C(O)O[C@H](CO)[C@@H](O)[C@@H]1O` (stereo partly drawn) [D-mannosamine], in the test with deaminase OngC, the “OngC activity towards substrate” value is given as “little or no activity”.
